The subject of the assay is HSPCs co-cultured with BMECs. Description: BMEC co-culture system: cell-type specific differentiation readout in response to small molecules. The class given is cell-based, murine. The settings on record: Cd11b+Gr1+, Lin neg, GMP, MEP and LSK cells after contacting the cells with the agent, FIGS. 4A-4C. From the text:
FIGS. 4A-4C. BMEC co-culture system can be used to readout cell-type specific dependencies in response to small molecules and single guide RNAs (sgRNAs).
A platform was adopted whereby primary murine HSPCs are co-cultured with bone marrow endothelial cells that allow for maintenance and expansion of HSPCs (FIG. 1). […] Thus, the adopted HSPC-BMEC co-culture platform is a robust system to study genetically defined murine HSPCs with CH genomic modifications.

The structures appear in SMILES notation.

On to `Cc1nc(Nc2ncc(C(=O)Nc3c(C)cccc3Cl)s2)cc(N2CCN(CCO)CC2)n1` [Dasatanib], for which the “effect on differentiation (percentage of heme-expression and cell differentiation)” value was “inhibits differentiation”.

For the origin of these results see patent US20240418704A1, “EPIGENETIC TARGETS IN CLONAL HEMATOPOIESIS” (Memorial Sloan-Kettering Cancer Center, priority 2021, published 2024).
